Test results from ChEMBL document CHEMBL5634091, “Cantharidin analogue alleviates dextran sulfate sodium-induced colitis in mice by inhibiting the activation of NF-κB signaling” (Eur J Med Chem, 2023).
Active and inactive are the calls of the source. The rule behind the calls is not given here.

How the values were obtained:
[1] = tested on: Mus musculus; assay: Anti-inflammatory activity in C57BL/6 mouse model of DSS-induced acute ulcerative colitis assessed as reduction in p65 expression in colon at 50 mg/kg, po administered once a day for 7 days by immunohistochemical analysis; assay type: functional, organism-based; details: time 7.0 day
[2] = Selectivity index, ratio of CC50 for cytotoxicity against TNF-alpha induced HEK293T cells to IC50 for inhibition of TNF-alpha induced NF-kappaB activation in HEK293T cells; assay type: toxicity, cell-based; details: human, HEK293T cells induced with TNF-alpha; read-out: Ratio IC50
[3] = Toxicity in po dosed Kunming mouse assessed as maximum tolerated dose; assay type: organism-based; details: in vivo
[4] = Cytotoxicity against LPS/IFNgamma induced mouse RAW264.7 cells assessed as inhibition of cell growth preincubated for 24 hrs followed by LPS/IFNgamma stimulation and measured after 24 hrs by SRB assay; assay type: toxicity, cell-based; details: RAW264.7 cells induced with LPS/IFNgamma, time 48 hrs
[5] = Toxicity in Kunming mouse assessed as number of mouse survived at 82 mg/kg, po measured for 15 days; assay type: organism-based; details: in vivo, 360 h, time 15 day
[6] = Cytotoxicity against TNF-alpha induced HEK293T cells assessed as inhibition of cell growth preincubated for 24 hrs followed by TNFalpha stimulation and measured after 4 hrs by SRB assay; assay type: toxicity, cell-based, HEK-293T; details: human, HEK293T cells induced with TNF-alpha; time 28 hrs
[7] = tested on: RAW264.7; assay: Antiinflammatory activity in mouse RAW264.7 cells assessed as inhibition in LPS/IFNgamma-induced NO production preincubated for 2 hrs followed by LPS/IFNgamma stimulation and measured after 24 hrs by Griess reagent based assay; assay type: functional, cell-based
[8] = Selectivity index, ratio of CC50 for cytotoxicity against LPS/IFNgamma induced mouse RAW264.7 cells to IC50 for antiinflammatory activity in mouse RAW264.7 cells assessed as inhibition in LPS/IFNgamma-induced NO production; assay type: toxicity, cell-based; details: RAW264.7 cells induced with LPS/IFNgamma, read-out: Ratio IC50
[9] = Toxicity in Kunming mouse assessed as number of mouse survived at 53 mg/kg, po measured for 15 days; assay type: organism-based; details: in vivo, 360 h, time 15 day
[10] = Toxicity in Kunming mouse assessed as number of mouse survived at 42 mg/kg, po measured for 15 days; assay type: organism-based; details: in vivo, 360 h, time 15 day
[11] = Inhibition of TNF-alpha induced NF-kappaB activation in HEK293T cells preincubated for 4 hrs and followed by TNF-alpha stimulation and measured after 4 hrs by dual-luciferase reporter assay; assay type: cell-based; details: Homo sapiens, HEK-293T
[12] = Toxicity in Kunming mouse assessed as increase in body weight at 42 mg/kg, po measured for 15 days (reference value: 12.38%); assay type: organism-based; details: in vivo, 360 h, time 15 day
[13] = species: Mus musculus; assay: Anti-inflammatory activity in C57BL/6 mouse model of DSS-induced acute ulcerative colitis; assay type: functional, organism-based
[14] = Toxicity in Kunming mouse assessed as number of mouse survived at 66 mg/kg, po measured for 15 days; assay type: organism-based; details: in vivo, 360 h, time 15 day
[15] = tested on: RAW264.7; assay: Antiinflammatory activity in mouse RAW264.7 cells assessed as inhibition in LPS/IFNgamma-induced NO production at 200 uM preincubated for 2 hrs followed by LPS/IFNgamma stimulation and measured after 24 hrs by Griess reagent based assay relative to control; assay type: functional; details: time 26 hrs
[16] = Toxicity in Kunming mouse assessed as increase in body weight at 40 mg/kg, po measured for 15 days (reference value: 12.38%); assay type: organism-based; details: in vivo, 360 h, time 15 day
[17] = Toxicity in Kunming mouse assessed as number of mouse survived at 40 mg/kg, po measured for 15 days; assay type: organism-based; details: in vivo, 360 h, time 15 day
[18] = Toxicity in Kunming mouse assessed as number of mouse survived at 57 mg/kg, po measured for 15 days; assay type: organism-based; details: in vivo, 360 h, time 15 day
[19] = Toxicity in Kunming mouse assessed as number of mouse survived at 117 mg/kg, po measured for 15 days; assay type: organism-based; details: in vivo, 360 h, time 15 day
[20] = Toxicity in Kunming mouse assessed as effect on kidney by measuring systemic edema at 117 mg/kg, po measured for 15 days; assay type: organism-based; details: in vivo, 360 h, time 15 day
[21] = tested on: Mus musculus; assay: Anti-inflammatory activity in C57BL/6 mouse model of DSS-induced acute ulcerative colitis assessed as reduction in ulcerations at 100 to 300 mg/kg, po administered once a day for 7 days by H and E staining based analysis; assay type: functional, organism-based; details: dose 100-300 mg/kg, time 7.0 day

Nc1ccc(O)c(C(=O)O)c1
Activity [1]: inactive

O=C1OC(=O)C2C3CCC(O3)C12 (centres undefined) [DEMETHYL-CANTHARIDIN]
selectivity ratio [2]: > 1.91
MTD [3]: 53 mg/kg
CC50 at 24 h [4]: 78.1 µM
Activity [5]: 3
CC50 at 4 h [6]: > 200 µM
IC50 [7]: 99.1 µM
selectivity ratio [8]: 0.79
Activity [9]: 0
Activity [10]: 0
IC50 [11]: 105 µM
Activity [12]: 15.62%
Activity [13]: inactive
Activity [14]: 1

Brc1cc2c(cc1Br)C1C=CC2O1
selectivity ratio [2]: 2.7
CC50 at 24 h [4]: > 200 µM
CC50 at 4 h [6]: 194 µM
IC50 [7]: > 200 µM
IC50 [11]: 71.8 µM
inhibition at 200 µM [15]: ~30%

CC(C)(C)OC(=O)C1=C(C(=O)OC(C)(C)C)C2C=CC1O2
selectivity ratio [2]: 1.91
CC50 at 24 h [4]: 12.8 µM
CC50 at 4 h [6]: 80.3 µM
IC50 [7]: 3.7 µM
selectivity ratio [8]: 3.46
IC50 [11]: 42 µM

COc1cc2c(cc1OC)C1C=CC2O1
selectivity ratio [2]: 5.72
CC50 at 24 h [4]: > 200 µM
CC50 at 4 h [6]: 114 µM
IC50 [7]: > 200 µM
IC50 [11]: 19.9 µM
inhibition at 200 µM [15]: ~30%

COC(=O)C1=C(C(=O)OC)C2OC1CC2C#Cc1ccccc1 (centres undefined)
selectivity ratio [2]: 3.21
CC50 at 24 h [4]: 5.69 µM
CC50 at 4 h [6]: 62.1 µM
IC50 [7]: 3.72 µM
selectivity ratio [8]: 1.53
IC50 [11]: 19.3 µM

CSC(=N)N
CC50 at 24 h [4]: > 200 µM
IC50 [7]: 12.6 µM
selectivity ratio [8]: > 15.8

C[C@@]12C(=O)OC(=O)[C@]1(C)[C@H]1CC[C@@H]2O1 [CANTHARIDIN]
CC50 at 24 h [4]: 3.88 µM
IC50 [7]: 10.2 µM
selectivity ratio [8]: 0.38

CCOC(=O)C1=C(C(=O)OCC)C2OC1CC2C#Cc1ccc(OC)cc1 (centres undefined)
selectivity ratio [2]: 4.34
CC50 at 24 h [4]: 18.9 µM
CC50 at 4 h [6]: 52.8 µM
IC50 [7]: 5.07 µM
selectivity ratio [8]: 3.73
IC50 [11]: 12.1 µM

COC(=O)C1=C(C(=O)OC)C2OC1CC2C#Cc1ccc(Br)cc1 (centres undefined)
selectivity ratio [2]: 4.9
CC50 at 24 h [4]: 5.06 µM
CC50 at 4 h [6]: 21.7 µM
IC50 [7]: 3.47 µM
selectivity ratio [8]: 1.46
IC50 [11]: 4.42 µM

CCOC(=O)C1=C(C(=O)OCC)C2C=CC1O2
Activity [16]: 2.31%
selectivity ratio [2]: 1.77
MTD [3]: 57 mg/kg
CC50 at 24 h [4]: 20.4 µM
Activity [5]: 1
Activity [17]: 0
CC50 at 4 h [6]: 59.9 µM
Activity [18]: 0
IC50 [7]: 3.86 µM
selectivity ratio [8]: 5.28
Activity [19]: 3
IC50 [11]: 33.7 µM
Activity [20]: Toxic
Activity [13]: inactive

COC(=O)C1=C(C(=O)OC)C2OC1CC2C#Cc1ccc(OC)cc1 (centres undefined)
selectivity ratio [2]: 0.9
CC50 at 24 h [4]: 7.51 µM
CC50 at 4 h [6]: 22.4 µM
IC50 [7]: 1.81 µM
selectivity ratio [8]: 4.15
IC50 [11]: 24.9 µM

COc1ccc(C#CC2CC3OC2c2cc(Br)c(Br)cc23)cc1 (centres undefined)
selectivity ratio [2]: 4.26
CC50 at 24 h [4]: 198 µM
CC50 at 4 h [6]: 140 µM
IC50 [7]: 186 µM
selectivity ratio [8]: 1.07
IC50 [11]: 39.4 µM

COC(=O)C1=C(C(=O)OC)C2OC1CC2C#Cc1ccc(Cl)cc1 (centres undefined)
selectivity ratio [2]: 1.74
CC50 at 24 h [4]: 5.23 µM
CC50 at 4 h [6]: 20.9 µM
IC50 [7]: 3.53 µM
selectivity ratio [8]: 1.48
IC50 [11]: 12 µM

COc1ccc(C#CC2CC3OC2c2ccccc23)cc1 (centres undefined)
selectivity ratio [2]: 1.15
CC50 at 24 h [4]: 191 µM
CC50 at 4 h [6]: 181 µM
IC50 [7]: 161 µM
selectivity ratio [8]: 1.19
IC50 [11]: 157 µM

COC(=O)C1=C(C(=O)OC)C2OC1CC2C#Cc1cc(OC)cc(OC)c1 (centres undefined)
selectivity ratio [2]: 5.45
CC50 at 24 h [4]: 5.06 µM
CC50 at 4 h [6]: 34.4 µM
IC50 [7]: 3.7 µM
selectivity ratio [8]: 1.37
IC50 [11]: 6.3 µM

C1=CC2OC1c1ccccc12
selectivity ratio [2]: 5.65
CC50 at 24 h [4]: > 200 µM
CC50 at 4 h [6]: 111 µM
IC50 [7]: > 200 µM
IC50 [11]: 19.7 µM
inhibition at 200 µM [15]: ~30%

COc1ccc(OC)c2c1C1C=CC2O1
selectivity ratio [2]: 4.79
CC50 at 24 h [4]: > 200 µM
CC50 at 4 h [6]: 118 µM
IC50 [7]: > 200 µM
IC50 [11]: 24.6 µM
inhibition at 200 µM [15]: ~30%

COC(=O)C1=C(C(=O)OC)C2OC1CC2C#Cc1ccccc1OC (centres undefined)
selectivity ratio [2]: 3.09
Activity [21]: Active
CC50 at 24 h [4]: 5.46 µM
CC50 at 4 h [6]: 30.7 µM
IC50 [7]: 3.77 µM
selectivity ratio [8]: 1.45
IC50 [11]: 9.92 µM

COc1ccc(C#CC2CC3OC2c2cc(OC)c(OC)cc23)cc1 (centres undefined)
selectivity ratio [2]: 1.48
CC50 at 24 h [4]: 184 µM
CC50 at 4 h [6]: 198 µM
IC50 [7]: 185 µM
selectivity ratio [8]: 0.99
IC50 [11]: 133 µM

C[C@@H]1C[C@H]2[C@@H]3CCC4=CC(=O)C=C[C@]4(C)[C@@]3(F)[C@@H](O)C[C@]2(C)[C@@]1(O)C(=O)CO [DEXAMETHASONE]
selectivity ratio [2]: > 16.4
CC50 at 4 h [6]: > 200 µM
IC50 [11]: 12.2 µM

COC(=O)C1=C(C(=O)OC)C2OC1CC2C#Cc1ccc(F)cc1 (centres undefined)
selectivity ratio [2]: 4.75
CC50 at 24 h [4]: 6.25 µM
CC50 at 4 h [6]: 26.5 µM
IC50 [7]: 3.75 µM
selectivity ratio [8]: 1.67
IC50 [11]: 5.58 µM

COC(=O)C1=C(C(=O)OC)C2C=CC1O2
Activity [16]: 10.6%
selectivity ratio [2]: 1.04
MTD [3]: 40 mg/kg
CC50 at 24 h [4]: 12.8 µM
Activity [5]: 1
Activity [17]: 0
CC50 at 4 h [6]: 99.9 µM
Activity [18]: 1
IC50 [7]: 4.12 µM
selectivity ratio [8]: 3.1
Activity [19]: 3
IC50 [11]: 96.1 µM
Activity [20]: Toxic
Activity [13]: inactive

COc1ccc(C#CC2CC3OC2c2c(OC)ccc(OC)c23)cc1 (centres undefined)
selectivity ratio [2]: 1.45
CC50 at 24 h [4]: 200 µM
CC50 at 4 h [6]: 199 µM
IC50 [7]: 190 µM
selectivity ratio [8]: 1.05
IC50 [11]: 137 µM
